Values of other authors in patent US6872696B2, “Particle with substituted polyvinyl alcohol coating” (Genencor International, Inc., priority 2000, dated 2005).

Conditions: neutral unreacted compound in water, 25 degrees C

| SMILES | Solubility g/100 ml H2O |
| --- | --- |
| OCCS [2-mercaptoethanol] | infinite |
| CCS [ethanethiol] | 0.67 g/100 ml H2O |
| O=C(O)/C=C\C(=O)O [maleic] | infinite |
